Source: patent publication US20240270762A1, “PENICILLIN-BINDING PROTEIN INHIBITORS” (priority 2021, published 2024)
In brackets after ≈: the same amount, converted by molar mass.

Tests used:
N. gonorrhoeae WHO K = assay: Liquid broth MIC in Fastidious broth; details: Neisseria gonorrhoeae, read-out: Minimum Inhibitory Concentration (MIC), N. gonorrhoeae WHO K
N. gonorrhoeae WHO M = assay: Liquid broth MIC in Fastidious broth; details: Neisseria gonorrhoeae, read-out: Minimum Inhibitory Concentration (MIC), N. gonorrhoeae WHO M
N. gonorrhoeae MS11 = assay: Liquid broth MIC in Fastidious broth; details: Neisseria gonorrhoeae, MS11, read-out: Minimum Inhibitory Concentration (MIC), N. gonorrhoeae MS11
N. gonorrhoeae WHO Z = assay: Liquid broth MIC in Fastidious broth; details: Neisseria gonorrhoeae, read-out: Minimum Inhibitory Concentration (MIC), N. gonorrhoeae WHO Z
N. gonorrhoeae WHO Q = assay: Liquid broth MIC in Fastidious broth; details: Neisseria gonorrhoeae, read-out: Minimum Inhibitory Concentration (MIC), N. gonorrhoeae WHO Q
N. gonorrhoeae FA1090 = assay: Liquid broth MIC in Fastidious broth; details: Neisseria gonorrhoeae, FA1090, read-out: Minimum Inhibitory Concentration (MIC), N. gonorrhoeae FA 1090
Protocol: Additional antibacterial testing of the series was performed in 8 reference strains of N. gonorrhoeae (ATCC 49226, FA1090, MS 11, WHO G, WHO L, WHO M, WHO K, WHO X, WHO Z, WHO Q, CDC-0197). ATCC 49226, FA1090, MS11, WHO G, WHO L, and WHO M produce wild type or wild-type like PBP2. WHO K, WHO X, WHO Z, WHO Q, and CDC-0197 produce mosaic PBP2. Liquid broth-based assays were used for antibacterial testing of PBP inhibitors in Neisseria gonorrhoeae. Briefly, cryo-preserved bacterial cultures of clinical strains were streaked for isolation on Chocolate Agar (72 g/L (2×) GC Agar Base (BD #228950) and 2% (2×) Hemoglobin was autoclaved at 121° C. for 20 minutes to sterilize. Once cooled to ˜50° C. the 2×GC Agar Base and 2× Hemoglobin solutions are combined and 1% IsoVitaleX Enrichment (BD #211876) was added to the solution). Strains were incubated at 36° C. and 5% CO2 to allow growth of colonies, 24 hours before inoculum preparation. 2-fold serial dilutions of test compounds were conducted in a 96 well plate with a final volume of 75 μL per well at 2-fold the final desired concentration in Fastidious broth (Remel #R07664). For preparation of assay inoculum, a direct suspension was prepared by aseptically swabbing 10-15 colonies from agar plates into culture tubes containing 2 mL of fresh sterile saline. After the dilution plates were set up, direct suspensions were then diluted in a cuvette containing sterile saline and the optical density was measured at 600 nm. Inocula were diluted such that 75 μL of this culture in Fastidious broth results in a starting bacterial concentration of 5×10^5 CFU/mL when added to the dilution plates. The plates were incubated for ˜24 hours at 36° C. and 5% CO2.

N. gonorrhoeae WHO L = assay: Liquid broth MIC in Fastidious broth; details: Neisseria gonorrhoeae, read-out: Minimum Inhibitory Concentration (MIC), N. gonorrhoeae WHO L
A. baumannii CDC-0045 = assay: microbe, parasite or virus in culture; assay type: cell-based; details: Acinetobacter baumannii, CDC0045, read-out: MIC, A. baumannii CDC-0045
[1] = tested on: P. aeruginosa (ΔmexAB-oprM); assay: Broth microdilution MIC in iron-depleted CAMHB (IDM); assay type: cell-based; details: Pseudomonas aeruginosa; iron-depleted CAMHB (IDM); […]; read-out: Minimum inhibitory concentration, P. aeruginosa ΔmexAB-oprM
P. aeruginosa ATCC 35151 = assay: microbe, parasite or virus in culture; assay type: cell-based; details: Pseudomonas aeruginosa, ATCC35151, read-out: Minimum inhibitory concentration, P. aeruginosa ATCC 35151
A. baumannii 1258916 = assay: microbe, parasite or virus in culture; assay type: cell-based, Acinetobacter baumannii; details: Acinetobacter baumannii, 1258916, read-out: MIC, A. baumannii 1258916
A. baumannii CDC-0036 = assay: microbe, parasite or virus in culture; assay type: cell-based; details: Acinetobacter baumannii, CDC0036, read-out: MIC, A. baumannii CDC-0036
A. baumannii ATCC 19606 = assay: microbe, parasite or virus in culture; assay type: cell-based; details: Acinetobacter baumannii, ATCC19606, read-out: MIC, A. baumannii ATCC 19606

Row | SMILES | MIC (N. gonorrhoeae WHO K) [µg/mL] | MIC (N. gonorrhoeae WHO M) [µg/mL] | MIC (N. gonorrhoeae MS11) [µg/mL] | MIC (N. gonorrhoeae WHO Z) [µg/mL] | MIC (N. gonorrhoeae WHO Q) [µg/mL] | MIC (N. gonorrhoeae FA1090) [µg/mL] | MIC (N. gonorrhoeae WHO L) [µg/mL] | MIC (A. baumannii CDC-0045) [µg/mL] | MIC [1] [µg/mL] | MIC (P. aeruginosa ATCC 35151) [µg/mL] | MIC (A. baumannii 1258916) [µg/mL] | MIC (A. baumannii CDC-0036) [µg/mL] | MIC (A. baumannii ATCC 19606) [µg/mL]
1 | O=C(O)c1cccc2c1OB(O)[C@@H](NC(=O)[C@@H](NC(=O)c1cnc3n(c1=O)CCS3)c1ccc(P(=O)(O)O)cc1)C2 (single isomer, unassigned) [Example 196] | 16 to 32 (≈ 26.7 to 53.3 µM) | 16 to 32 (≈ 26.7 to 53.3 µM) | 16 to 32 (≈ 26.7 to 53.3 µM) | 16 to 32 (≈ 26.7 to 53.3 µM) | 16 to 32 (≈ 26.7 to 53.3 µM) | 4 to 8 (≈ 6.66 to 13.3 µM) | 16 to 32 (≈ 26.7 to 53.3 µM) | – | – | – | – | – | –
2 | O=C(O)c1cccc2c1OB(O)[C@@H](NC(=O)[C@H](NC(=O)c1cnc3n(c1=O)CCS3)c1ccc(P(=O)(O)O)cc1)C2 (single isomer, unassigned) [Example 197] | 16 to 32 (≈ 26.7 to 53.3 µM) | 4 to 8 (≈ 6.66 to 13.3 µM) | 16 to 32 (≈ 26.7 to 53.3 µM) | 16 to 32 (≈ 26.7 to 53.3 µM) | 16 to 32 (≈ 26.7 to 53.3 µM) | 1 to 2 (≈ 1.67 to 3.33 µM) | 16 to 32 (≈ 26.7 to 53.3 µM) | – | – | – | – | – | –
3 | CCN1CCN(C(=O)NC(C(=O)N[C@H]2Cc3cccc(C(=O)O)c3OB2O)c2ccc(P(=O)(O)O)c(F)c2O)C(=O)C1=O (stereo partly drawn) [Example 198, (3R)-3-(2-(4-ethyl-2,3-dioxopiperazine-1-carboxamido)-2-(3-fluoro-2-hydroxy-4-phosphonophenyl)acetamido)-2-hydroxy-3,4-dihydro-2H-benzo[e][1,2]oxaborinine-8-carboxylic acid] | 4 to 8 (≈ 6.43 to 12.9 µM) | < 1 | < 1 | 1 to 2 (≈ 1.61 to 3.21 µM) | 1 to 2 (≈ 1.61 to 3.21 µM) | < 1 | 1 to 2 (≈ 1.61 to 3.21 µM) | – | – | – | – | – | –
4 | CN(CCN1CCN(C(=O)N[C@@H](C(=O)N[C@H]2Cc3ccc(F)c(C(=O)O)c3OB2O)c2cc(F)c(O)c(O)c2Cl)C(=O)C1=O)Cc1nccs1 [Example 200, (R)-3-((R)-2-(2-chloro-5-fluoro-3,4-dihydroxyphenyl)-2-(4-(2-(methyl(thiazol-2-ylmethyl)amino)ethyl)-2,3-dioxopiperazine-1-carboxamido)acetamido)-7-fluoro-2-hydroxy-3,4-dihydro-2H-benzo[e][1,2]oxaborinine-8-carboxylic acid] | 16 to 32 (≈ 21.7 to 43.4 µM) | 4 to 8 (≈ 5.43 to 10.9 µM) | 16 to 32 (≈ 21.7 to 43.4 µM) | 16 to 32 (≈ 21.7 to 43.4 µM) | 16 to 32 (≈ 21.7 to 43.4 µM) | 1 to 2 (≈ 1.36 to 2.71 µM) | > 64 | < 1 | < 1 | < 1 | < 1 | 2 to 4 (≈ 2.71 to 5.43 µM) | < 1
5 | CN(CCN1CCN(C(=O)N[C@@H](C(=O)N[C@H]2Cc3ccc(F)c(C(=O)O)c3OB2O)c2cc(F)c(O)c(O)c2Cl)C(=O)C1=O)Cc1cccnc1 [Example 201, (R)-3-((R)-2-(2-chloro-5-fluoro-3,4-dihydroxyphenyl)-2-(4-(2-(methyl(pyridin-3-ylmethyl)amino)ethyl)-2,3-dioxopiperazine-1-carboxamido)acetamido)-7-fluoro-2-hydroxy-3,4-dihydro-2H-benzo[e][1,2]oxaborinine-8-carboxylic acid] | 16 to 32 (≈ 21.9 to 43.8 µM) | 4 to 8 (≈ 5.47 to 10.9 µM) | 16 to 32 (≈ 21.9 to 43.8 µM) | > 64 | 16 to 32 (≈ 21.9 to 43.8 µM) | 1 to 2 (≈ 1.37 to 2.74 µM) | > 64 | < 1 | < 1 | < 1 | < 1 | 2 to 4 (≈ 2.74 to 5.47 µM) | < 1
6 | O=C(CN1CCN(C(=O)NC(C(=O)N[C@H]2Cc3ccc(F)c(C(=O)O)c3OB2O)c2cc(F)c(O)c(O)c2Cl)C(=O)C1=O)NCc1ccc(O)cc1 (stereo partly drawn) [Example 236, (3R)-3-(2-(2-chloro-5-fluoro-3,4-dihydroxyphenyl)-2-(4-(2-((4-hydroxybenzyl)amino)-2-oxoethyl)-2,3-dioxopiperazine-1-carboxamido)acetamido)-7-fluoro-2-hydroxy-3,4-dihydro-2H-benzo[e][1,2]oxaborinine-8-carboxylic acid] | – | – | – | – | – | – | – | 8 to 16 (≈ 10.7 to 21.5 µM) | – | – | 2 to 4 (≈ 2.68 to 5.36 µM) | 8 to 16 (≈ 10.7 to 21.5 µM) | < 1
7 | O=C(CN1CCN(C(=O)NC(C(=O)N[C@H]2Cc3ccc(F)c(C(=O)O)c3OB2O)c2cc(F)c(O)c(O)c2Cl)C(=O)C1=O)NCc1ccccc1 (stereo partly drawn) [Example 238] | > 64 | 4 to 8 (≈ 5.48 to 11 µM) | 16 to 32 (≈ 21.9 to 43.8 µM) | 16 to 32 (≈ 21.9 to 43.8 µM) | > 64 | 1 to 2 (≈ 1.37 to 2.74 µM) | > 64 | – | < 1 | < 1 | 2 to 4 (≈ 2.74 to 5.48 µM) | 8 to 16 (≈ 11 to 21.9 µM) | < 1
